Laboratory results reported in US20160355465A1, “NOVEL MODIFIED CURCUMINS AND THEIR USES” (THE RESEARCH FOUNDATION OF STATE UNIVERSITY OF NEW YORK, priority 2011, published 2016).
Where two headings read alike, the source gives them in different places.

Experiments:
MMP-1 = biological target: T1, MMP-1 (Homo sapiens, UniProt P03956); assay: fluorimetric assay of MMP activity; type: biochemical; details: synthetic fluorescent peptide substrate Mca-Lys-Pro-Leu-Gly-Leu-Dpa-Ala-Arg-NH2
T1 sequence (P03956 100-469): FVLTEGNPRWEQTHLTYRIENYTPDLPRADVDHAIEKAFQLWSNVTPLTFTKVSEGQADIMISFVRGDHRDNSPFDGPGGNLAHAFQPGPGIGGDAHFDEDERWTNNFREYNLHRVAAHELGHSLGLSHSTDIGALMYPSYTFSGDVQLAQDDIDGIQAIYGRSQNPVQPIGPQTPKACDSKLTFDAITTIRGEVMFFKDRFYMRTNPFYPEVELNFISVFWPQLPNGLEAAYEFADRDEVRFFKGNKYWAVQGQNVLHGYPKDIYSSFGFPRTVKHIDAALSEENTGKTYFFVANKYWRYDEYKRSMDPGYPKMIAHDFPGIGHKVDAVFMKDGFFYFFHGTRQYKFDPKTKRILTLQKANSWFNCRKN

MMP-8 = MMP-8 (Homo sapiens, UniProt P22894); assay: fluorimetric assay of MMP activity; type: biochemical; details: synthetic fluorescent peptide substrate Mca-Lys-Pro-Leu-Gly-Leu-Dpa-Ala-Arg-NH2
MMP-13 = MMP-13 (Homo sapiens, UniProt P45452); assay: fluorimetric assay of MMP activity; type: biochemical; details: synthetic fluorescent peptide substrate Mca-Lys-Pro-Leu-Gly-Leu-Dpa-Ala-Arg-NH2
MMP-2 = biological target: T2, MMP-2 (Homo sapiens, UniProt P08253); assay: fluorimetric assay of MMP activity; type: biochemical
T2 sequence (P08253 110-660): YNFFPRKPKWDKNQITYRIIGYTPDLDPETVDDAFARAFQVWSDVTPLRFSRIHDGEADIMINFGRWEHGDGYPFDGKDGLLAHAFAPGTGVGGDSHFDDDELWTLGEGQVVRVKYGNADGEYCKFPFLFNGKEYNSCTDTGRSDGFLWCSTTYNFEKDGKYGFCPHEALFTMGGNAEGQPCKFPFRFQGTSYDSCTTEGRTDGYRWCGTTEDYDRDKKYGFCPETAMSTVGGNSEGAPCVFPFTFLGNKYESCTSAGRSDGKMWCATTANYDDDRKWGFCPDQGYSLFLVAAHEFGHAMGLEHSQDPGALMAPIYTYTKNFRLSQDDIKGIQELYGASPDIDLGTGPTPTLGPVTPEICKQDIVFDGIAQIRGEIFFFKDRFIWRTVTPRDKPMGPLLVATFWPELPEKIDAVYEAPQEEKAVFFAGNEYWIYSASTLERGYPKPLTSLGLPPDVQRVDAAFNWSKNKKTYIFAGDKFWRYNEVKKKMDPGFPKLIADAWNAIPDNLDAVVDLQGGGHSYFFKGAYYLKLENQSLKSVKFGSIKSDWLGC

MMP-9 = MMP-9 (Homo sapiens, UniProt P14780); assay: fluorimetric assay of MMP activity; type: biochemical; details: synthetic fluorescent peptide substrate Mca-Lys-Pro-Leu-Gly-Leu-Dpa-Ala-Arg-NH2
MMP-3 = MMP-3 (Homo sapiens, UniProt P08254); assay: fluorimetric assay of MMP activity; type: biochemical; details: synthetic fluorescent peptide substrate Mca-Lys-Pro-Leu-Gly-Leu-Dpa-Ala-Arg-NH2
MMP-7 = biological target: T3, MMP-7 (Homo sapiens, UniProt P09237); assay: fluorimetric assay of MMP activity; type: biochemical; details: synthetic fluorescent peptide substrate Mca-Lys-Pro-Leu-Gly-Leu-Dpa-Ala-Arg-NH2
T3 sequence (P09237 95-267): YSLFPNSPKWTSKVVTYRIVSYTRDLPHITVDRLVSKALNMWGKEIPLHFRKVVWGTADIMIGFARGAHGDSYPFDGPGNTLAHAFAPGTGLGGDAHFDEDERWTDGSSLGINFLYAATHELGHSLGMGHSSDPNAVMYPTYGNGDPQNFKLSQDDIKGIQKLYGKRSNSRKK

MMP-12 = MMP-12 (Homo sapiens, UniProt P39900); assay: fluorimetric assay of MMP activity; type: biochemical; details: synthetic fluorescent peptide substrate Mca-Lys-Pro-Leu-Gly-Leu-Dpa-Ala-Arg-NH2
MMP-14 = MMP-14 (Homo sapiens, UniProt P50281); assay: fluorimetric assay of MMP activity; type: biochemical; details: synthetic fluorescent peptide substrate Mca-Lys-Pro-Leu-Gly-Leu-Dpa-Ala-Arg-NH2
collagen in wound tissue = assay: collagen fractions (hydroxyproline) in wound tissue of diabetic rats; type: in vivo, rat; details: wound tissue day 6
From the text: Biochemical measurements were made on wound tissue 6 days after creating the standardized 6 mm diameter wounds in the various groups of rats including: (1) non-diabetic controls (NDC); (2) Diabetic (DM) rats treated topically with 0.25% curcumin; (3) DM treated with 1% curcumin; (4) DM treated with 0.25% Compound 4, and (5) DM rats treated with 1% Compound 4. The wound tissues from these five different groups were then hydrolyzed (after extraction; see below) to degrade the collagen to individual amino acids, and the amino acid unique to collagen, hydroxyproline, was measured by a commercial colorimetric assay. Prior to hydrolysis, the wound tissues were extracted (at 4° C. to maintain the triple-helical conformation of the collagen molecules) to obtain first the salt-soluble fraction, then the acid-soluble fraction, leaving the insoluble fraction.

[1] = blood glucose of the rats of the collagen experiment; type: in vivo, rat; details: diabetic rats
[2] = tested on: MMPs 1, 2, 3, 7, 8, 9, 12, 13 and 14; assay: activity against a battery of MMPs (summary in words); type: biochemical, human
[3] = toxicity / tolerability in diabetic rats; type: in vivo; details: at elevated levels
Procedure: The following five experimental groups (n=3 rats per group) were established: Non-diabetic control rats (NDC) treated by daily application of white petrolatum jelly (“vehicle”) for 7 days, diabetic rats (D group) treated daily with vehicle alone; diabetics treated by daily topical application of either a 1% (D+1%) or a 3% (D+3%) suspension of Compound 4 in the vehicle; and diabetics treated systemically by daily oral intubation of a 1 ml suspension of Compound 4 (in carboxymethylcellulose) at a dose of 30 mg/kg over the 7-day treatment protocol (D+30 mg/kg). At the end of this time period, the circular wounds were clinically assessed by measuring diameter of the wound in millimeters, blood samples were collected, the rats were sacrificed, and skin samples collected for histological/histochemical, and biochemical assessment as described below. • 1) On day 7 after inducing wound healing, the animals were anesthetized and blood samples collected for blood glucose (one Touch Ultra Glucometer; Johnson & Johnson, New Brunswick, N.J.) and Hemoglobin A1c (A1c Now+; Bayer Health Care, Sunnyvale, Calif.) measurements. • 2) Photographs were taken for clinical observations to assess wound closure. The % reduction of the wound surface was calculated by measuring the diameter (in millimeters) of each wound before and after the treatment protocol. • 3) Wound tissues on day 7 were excised from 3 sites per rat and pooled for biochemical analysis. […] The supernates were then dialyzed against the Tris-HCl, NaCl, CaCl2 buffer, and the proteinases partially purified by ammonium sulfate precipitation and examined for levels of MMP-2 (72 kD gelatinse) and MMP-9 (92 kD gelatinase) by gelatin zymography using denatured type I collagen (gelatin) as the substrate (6). • 4) The remaining wounds were assessed histologically & histochemically by Dr. Steve McClain (McClain Labs, Smithtown, N.Y.) as follows: Biopsies of each wound site were taken and included both the wound tissue and surrounding non-wounded tissue. […]

[4] = synthetic fluorescent peptide substrate Mca-Lys-Pro-Leu-Gly-Leu-Dpa-Ala-Arg-NH2, read-out: IC50 MMP-2

MMP-3, sequence (P08254 100-477): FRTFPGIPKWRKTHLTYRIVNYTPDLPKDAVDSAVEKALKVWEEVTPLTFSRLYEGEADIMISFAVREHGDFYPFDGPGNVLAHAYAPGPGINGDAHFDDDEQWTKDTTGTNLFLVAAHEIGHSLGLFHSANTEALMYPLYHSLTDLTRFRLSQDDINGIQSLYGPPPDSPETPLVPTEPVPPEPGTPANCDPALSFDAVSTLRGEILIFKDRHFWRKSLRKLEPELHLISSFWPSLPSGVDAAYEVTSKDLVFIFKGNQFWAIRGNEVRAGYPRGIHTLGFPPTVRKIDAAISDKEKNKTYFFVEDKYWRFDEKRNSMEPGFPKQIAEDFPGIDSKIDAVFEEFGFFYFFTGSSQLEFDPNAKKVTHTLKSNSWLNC
MMP-9, sequence (P14780 94-707): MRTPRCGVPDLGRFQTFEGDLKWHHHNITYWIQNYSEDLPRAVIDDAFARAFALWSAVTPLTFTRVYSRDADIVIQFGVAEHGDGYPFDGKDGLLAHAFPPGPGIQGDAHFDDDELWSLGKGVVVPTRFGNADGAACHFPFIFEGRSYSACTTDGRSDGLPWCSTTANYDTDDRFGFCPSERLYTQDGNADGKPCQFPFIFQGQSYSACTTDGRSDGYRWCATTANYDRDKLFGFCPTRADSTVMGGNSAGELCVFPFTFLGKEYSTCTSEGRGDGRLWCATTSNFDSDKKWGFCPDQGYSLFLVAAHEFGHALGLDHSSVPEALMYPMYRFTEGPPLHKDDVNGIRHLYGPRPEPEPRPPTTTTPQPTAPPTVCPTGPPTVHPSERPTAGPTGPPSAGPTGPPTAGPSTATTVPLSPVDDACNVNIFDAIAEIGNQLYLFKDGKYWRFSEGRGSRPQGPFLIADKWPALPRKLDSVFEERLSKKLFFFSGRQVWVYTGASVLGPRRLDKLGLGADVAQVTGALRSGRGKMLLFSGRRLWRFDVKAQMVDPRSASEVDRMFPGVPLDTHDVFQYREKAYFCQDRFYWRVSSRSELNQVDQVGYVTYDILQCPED
MMP-8, sequence (P22894 101-467): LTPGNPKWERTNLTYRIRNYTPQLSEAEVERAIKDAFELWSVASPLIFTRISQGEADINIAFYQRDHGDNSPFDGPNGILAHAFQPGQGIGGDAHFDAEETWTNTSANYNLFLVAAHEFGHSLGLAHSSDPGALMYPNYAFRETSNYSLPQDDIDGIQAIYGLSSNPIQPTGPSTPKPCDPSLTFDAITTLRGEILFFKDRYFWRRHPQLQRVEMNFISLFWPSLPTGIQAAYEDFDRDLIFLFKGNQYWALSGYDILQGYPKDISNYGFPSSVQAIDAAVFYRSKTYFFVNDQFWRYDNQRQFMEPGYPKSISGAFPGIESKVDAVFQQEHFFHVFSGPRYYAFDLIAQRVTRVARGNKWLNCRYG
MMP-12, sequence (P39900 106-470): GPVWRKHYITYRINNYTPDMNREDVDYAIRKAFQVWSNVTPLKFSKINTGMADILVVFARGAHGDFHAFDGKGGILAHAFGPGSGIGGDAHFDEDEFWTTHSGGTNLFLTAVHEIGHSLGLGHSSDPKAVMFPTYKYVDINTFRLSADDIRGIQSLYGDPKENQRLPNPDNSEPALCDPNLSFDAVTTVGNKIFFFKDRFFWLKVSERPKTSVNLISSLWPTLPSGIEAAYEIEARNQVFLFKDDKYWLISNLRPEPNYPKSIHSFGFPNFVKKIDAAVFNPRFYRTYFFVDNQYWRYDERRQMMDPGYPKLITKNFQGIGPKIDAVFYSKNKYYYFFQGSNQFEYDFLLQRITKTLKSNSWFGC

| IC50 (MMP-1) | IC50 (MMP-8) | IC50 (MMP-13) | IC50 (MMP-2; [4]) | IC50 (MMP-9) | IC50 (MMP-3) | IC50 (MMP-7) | IC50 (MMP-12) | IC50 (MMP-14) | IC50 (MMP-2) | Compound | Collagen Fractions (%) Acid-soluble (collagen in wound tissue; 0.25% topical) | Collagen Fractions (%) Insoluble (collagen in wound tissue; 0.25% topical) | Collagen Fractions (%) Salt-soluble (collagen in wound tissue; 0.25% topical) | Collagen Fractions (%) Acid-soluble (collagen in wound tissue; 1% topical) | Collagen Fractions (%) Insoluble (collagen in wound tissue; 1% topical) | Collagen Fractions (%) Salt-soluble (collagen in wound tissue; 1% topical) | Blood Glucose ([1]; 0.25% topical) | Blood Glucose ([1]; 1% topical) | anti-MMP activity (in words) [2] | toxicity [3] |
| --- | --- | --- | --- | --- | --- | --- | --- | --- | --- | --- | --- | --- | --- | --- | --- | --- | --- | --- | --- | --- |
| 42 ± 1.1 µM | 31.3 ± 0.5 µM | 50 ± 10.4 µM | 73.8 ± 1 µM | 45 ± 12.6 µM | 77 ± 3.2 µM | 197 ± 8.8 µM | 29.5 ± 1.3 µM | 43.8 ± 4.2 µM |  | c1cnc2c(c1)ccc1cccnc12 [1,10-Phen, 1,10-phenanthroline, reference compound] |  |  |  |  |  |  |  |  |  |  |
|  |  |  |  | 30 ± 2.9 µM | 4.7 ± 0.8 µM | 51.8 ± 2.5 µM | 2.6 ± 0.2 µM | 29.5 ± 3.2 µM | 5 ± 0.7 µM | COc1cc(/C=C/C(=O)CC(=O)/C=C/c2ccc(O)c(OC)c2)ccc1O [Compound 1, 1,7-Bis(4-hydroxy-3-methoxyphenyl)hepta-1E,6E-dien-3,5-dione, reference compound] | 48.3% | 36.4% | 15.3% | 50.9% | 27.1% | 22.0% | 569 mg/dL | 540 mg/dL |  |  |
| 74 ± 3.5 µM | 30.8 ± 1.5 µM |  | 25.3 ± 1.3 µM | 55 ± 17.3 µM | 32.5 ± 2.8 µM | 48.8 ± 0.5 µM | 27.8 ± 1.7 µM | 48.5 ± 4.3 µM |  | COC(=O)C(C(=O)/C=C/c1ccc(O)c(OC)c1)C(=O)/C=C/c1ccc(O)c(OC)c1 [Compound 2, 1,7-Bis(4-hydroxy-3-methoxyphenyl)-4-methoxycarbonylhepta-1E,6E-dien-3,5-dione] |  |  |  |  |  |  |  |  |  |  |
| 76.3 ± 6.5 µM | 20 ± 2 µM | 26.7 ± 1.7 µM | 23.8 ± 0.9 µM | 43.3 ± 4.4 µM | 28.3 ± 1 µM | 57.5 ± 4.6 µM | 5.3 ± 0.3 µM | 40 ± 8.4 µM |  | COC(=O)C(C(=O)/C=C/c1ccc(O)cc1)C(=O)/C=C/c1ccc(O)cc1 [Compound 5, 1,7-Bis(4-hydroxyphenyl)-4-methoxycarbonylhepta-1E,6E-dien-3,5-dione] |  |  |  |  |  |  |  |  |  |  |

| Compound | IC50 (MMP-1) | IC50 (MMP-8) | IC50 (MMP-13) | IC50 (MMP-2; [4]) | IC50 (MMP-9) | IC50 (MMP-3) | IC50 (MMP-7) | IC50 (MMP-12) | IC50 (MMP-14) | IC50 (MMP-2) | Collagen Fractions (%) Acid-soluble (collagen in wound tissue; 0.25% topical) | Collagen Fractions (%) Insoluble (collagen in wound tissue; 0.25% topical) | Collagen Fractions (%) Salt-soluble (collagen in wound tissue; 0.25% topical) | Collagen Fractions (%) Acid-soluble (collagen in wound tissue; 1% topical) | Collagen Fractions (%) Insoluble (collagen in wound tissue; 1% topical) | Collagen Fractions (%) Salt-soluble (collagen in wound tissue; 1% topical) | Blood Glucose ([1]; 0.25% topical) | Blood Glucose ([1]; 1% topical) | anti-MMP activity (in words) [2] | toxicity [3] |
| --- | --- | --- | --- | --- | --- | --- | --- | --- | --- | --- | --- | --- | --- | --- | --- | --- | --- | --- | --- | --- |
| COc1cc(/C=C/C(=O)C(C(=O)/C=C/c2ccc(O)c(OC)c2)C(=O)Nc2ccccc2)ccc1O [Compound 3, 1,7-Bis(4-hydroxy-3-methoxyphenyl)-4-N-phenylaminocarbonylhepta-1E, 6E-dien-3,5-dione] | 68 ± 3.2 µM | 2.5 ± 0.3 µM |  | 6.3 ± 0.9 µM | 8.7 ± 0.7 µM | 5.3 ± 0.7 µM | 21.5 ± 1 µM | 4.5 ± 0.5 µM | 41.3 ± 4.9 µM |  |  |  |  |  |  |  |  |  | highly active | some toxicity |
